Reference: patent publication US20080213172A1, “RADIOIMAGING MOIETIES COUPLED TO PEPTIDEASE-BINDING MOIETIES FOR IMAGING TISSUES AND ORGANS THAT EXPRESS PEPTIDASES” (Molecular Insight Pharmaceuticals, Inc., priority 2006, published 2008)

target: T1, purified rabbit lung ACE (Oryctolagus cuniculus, UniProt P12822); experiment: In vitro ACE activity colorimetric assay (Fujirebio ACE color kit); format: biochemical; details: Re-complexes; purified rabbit lung ACE
T1 construct: The rabbit lung ACE (Sigma A6778) was reconstituted to a concentration of 1 unit/3 ml water; purchased Sigma A6778; host or cells: rabbit lung tissue
T1 sequence (P12822 34-1310): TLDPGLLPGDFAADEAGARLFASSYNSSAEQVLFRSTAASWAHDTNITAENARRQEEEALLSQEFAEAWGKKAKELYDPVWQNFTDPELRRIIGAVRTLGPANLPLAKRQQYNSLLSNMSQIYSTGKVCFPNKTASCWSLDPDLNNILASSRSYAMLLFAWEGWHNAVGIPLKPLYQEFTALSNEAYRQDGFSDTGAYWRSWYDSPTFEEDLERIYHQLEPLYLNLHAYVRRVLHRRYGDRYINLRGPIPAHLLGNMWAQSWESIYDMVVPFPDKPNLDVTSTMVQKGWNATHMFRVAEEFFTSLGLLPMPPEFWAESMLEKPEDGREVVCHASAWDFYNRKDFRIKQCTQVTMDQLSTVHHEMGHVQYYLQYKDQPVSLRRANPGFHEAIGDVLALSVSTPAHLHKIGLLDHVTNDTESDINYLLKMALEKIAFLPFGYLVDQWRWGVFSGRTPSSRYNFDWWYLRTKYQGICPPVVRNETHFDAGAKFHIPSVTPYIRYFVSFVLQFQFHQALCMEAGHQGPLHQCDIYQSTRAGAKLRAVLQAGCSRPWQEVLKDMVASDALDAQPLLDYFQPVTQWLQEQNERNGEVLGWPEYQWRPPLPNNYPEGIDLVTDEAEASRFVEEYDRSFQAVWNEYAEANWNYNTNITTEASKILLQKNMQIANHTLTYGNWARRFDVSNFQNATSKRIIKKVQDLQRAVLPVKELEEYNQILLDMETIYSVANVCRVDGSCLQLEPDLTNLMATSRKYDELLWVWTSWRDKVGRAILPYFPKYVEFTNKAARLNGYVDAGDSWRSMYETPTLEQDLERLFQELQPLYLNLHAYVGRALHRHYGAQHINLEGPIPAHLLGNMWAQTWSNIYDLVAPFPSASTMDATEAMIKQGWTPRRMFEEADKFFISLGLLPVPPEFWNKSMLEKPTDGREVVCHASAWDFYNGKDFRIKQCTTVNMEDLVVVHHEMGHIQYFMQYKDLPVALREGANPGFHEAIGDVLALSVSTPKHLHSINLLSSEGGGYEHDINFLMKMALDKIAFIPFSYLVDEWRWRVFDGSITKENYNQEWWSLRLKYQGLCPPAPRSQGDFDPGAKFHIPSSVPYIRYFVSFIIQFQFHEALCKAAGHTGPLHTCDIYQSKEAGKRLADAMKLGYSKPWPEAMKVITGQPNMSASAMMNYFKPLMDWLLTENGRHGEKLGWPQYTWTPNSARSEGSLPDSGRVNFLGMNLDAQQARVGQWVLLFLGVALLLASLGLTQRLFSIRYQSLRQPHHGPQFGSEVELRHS
Method: ACE inhibition was evaluated in vitro against rabbit lung ACE using a colorimetric assay.
A range of concentrations of each compound was examined for the ability to inhibit ACE cleavage of p-hydroxybenzoyl-glycine L-histidyl-L-leucine using a commercially available in vitro biochemical assay according to manufacturer's specifications (Fujirebio). The source of ACE enzyme chosen for the analysis was purified rabbit lung ACE (Sigrna) at 3.3 mU/sample. Lisinopril was included in each experiment as a positive control.
Angiotensin converting enzyme (ACE) activity was determined using the ACE color kit (Fujirebio) according to the manufacturers instructions. ACE acts upon p-hydroxybenzoyl-glycyl-L-histidyl-L-leucine to produce p-hydroxybenzoyl-glycine, which is converted to p-hydroxybenzoic acid by hippuricase. Quinoneimine dye is produced by oxidation and condensation of the p-hydroxybenzoic acid and 4-aminoantipyrine using sodium metaperiodate. The concentration of quinoneimine dye is quantitatively measured at its absorbance maximum of 505 nm. This assay was designed to compare the tissue and plasma specificity of rhenium-labeled ACE inhibitors in an ACE colorimetric assay.
Preparation of reagents: The ACE color kit was purchased from Fujirebio and the assay was conducted according to the manufacturer's instructions: reconstitute substrate with 5.6 ml of buffer solution, reconstitute blank with 5.6 ml of buffer solution for blank, reconstitute developer with 15.5 ml of stopper solution. The rabbit lung ACE (Sigma A6778) was reconstituted to a concentration of 1 unit/3 ml water.
Substrate or blank solution (125 μL) was then added and incubated at 37° C. for 20 min. The developer solution was added and incubated 37° C. for 3 min. The activity of the test compounds was determined by measuring the absorbance at 505 nm on a spectrophotometer. The optimal amount of serum ACE (25 μL) and tissue ACE (3.3 mUnits) was used to determine the specificity of the rhenium-labled ACE inhibitors. Test compounds, including lisinopril and captopril, were prepared (50 μM stock) and serially diluted 10-fold for final concentrations ranging from 1 μM to 0.1 nM (10 μL/assay tube). The assay was conducted as described above.
In vitro ACE activity assay. The ability of test compounds to inhibit ACE activity was determined using the ACEcolor kit from Fujirebio, Inc. according to the manufacturer's instructions. Purified rabbit lung ACE. (3.3 mUnits, Sigrna Chemicals) was incubated for 20 min with the test compound at concentrations of 1 μM to 0.1 nM in a solution of substrate at 37° C. Developer solution was added and the samples were incubated for an additional 5 minutes at 37° C. before reading at 505 nm in a spectrophotometer.

| SMILES | IC50 [nM] |
| --- | --- |
| NCCCC[C@H](N[C@@H](CCc1ccccc1)C(=O)O)C(=O)N1CCC[C@H]1C(=O)O [Lisinopril, reference compound] | 4 |

same assay, conditions: free D(Cx)L ligands; rabbit lung ACE 3.3 mU/sample

| IC50 [nM] | SMILES |
| --- | --- |
| 83.3 | O=C(CCCN(Cc1ccccn1)Cc1ccccn1)NCCCCC(NC(CCc1ccccc1)C(=O)O)C(=O)N1CCCC1C(=O)O (stereo not drawn) [D(C4)L] |
| 42.8 | O=C(CCCCN(Cc1ccccn1)Cc1ccccn1)NCCCCC(NC(CCc1ccccc1)C(=O)O)C(=O)N1CCCC1C(=O)O (stereo not drawn) [D(C5)L] |
| 42.5 | O=C(CCCCCN(Cc1ccccn1)Cc1ccccn1)NCCCCC(NC(CCc1ccccc1)C(=O)O)C(=O)N1CCCC1C(=O)O (stereo not drawn) [D(C6)L] |
| 19.5 | O=C(CCCCCCCN(Cc1ccccn1)Cc1ccccn1)NCCCCC(NC(CCc1ccccc1)C(=O)O)C(=O)N1CCCC1C(=O)O (stereo not drawn) [D(C8)L] |

| SMILES | IC50 [nM] |
| --- | --- |
| NCCCC[C@H](N[C@@H](CCc1ccccc1)C(=O)O)C(=O)N1CCC[C@H]1C(=O)O [Lisinopril, reference compound] | 2.5 |
